From patent US5220042A, “1,4-benzoquinone derivatives and benzene derivatives, and process for preparing the same” (priority 1984, dated 1993)
Where two headings read alike, the source gives them in different places.

Legend:
Assay type in all cases: cell-based, guinea pig (Hartley strain)
[1] = system: SRS-A release from lung fragments; assay: Inhibition of SRS-A release from sensitized guinea pig lung fragments; settings: Cavia porcellus
Experimental: (§1) Inhibitory activities on the release of SRS-A and histamine of the present compounds were determined.
(§2) A male guinea pig (Hartley strain) (body weight: about 300 g) was sensitized by a method according to P. Anderson: "Int. Archs. Allergey appln. Immunol., Vol. 64, pages 249-258 (1981). Thus, 30 mg/kg of cyclophosphamide was intraperitoneally administered to the guinea pig, and 2 days after 1 microgram of ovalbumin (manufactured by Sigma Chemical Co., St. Louis, Mo. U. S. A.) together with 10 mg of aluminium hydroxide gel were intraperitoneally administered so as to have the animal sesitized.
(§3) 50 Days after the sesitization, the animal was killed by exsanguination, and the lung was isolated from the animal and was perfused with 20 ml of Tyrode's solution, then immersed in an ice-cooled Tyrode's solution. The parenchyma of the lung was cut by using McIlwain-type tissue chopper to make it into fragments of lung having 2 mm square and the fragments were washed with Tyrode's solution. 400 Milligrams of sectiles of lung were suspended in 3.6 ml of Tyrode's solution, and this suspension was preincubated at 37° C. for 5 minutes, then 4 microliters of dimethyl sulfoxide solution of the test compound, in the case of control 4 microliters of dimethyl sulfoxide alone was added to the suspension. 5 Minutes after, 0.4 ml of 100 micrograms/ml of ovalbumin solution added so as to release SRS-A for 10 minutes. The suspension was ice-cooled and filtered through gauze, the filtrate was centrifuged at 2,000 rpm for 10 minutes and the supernatant was collected. The supernatant was stored in freezed state at -80° C. until bio-assay was conducted.
(§4) Amounts of SRS-A and histamine contained in the supernatant were determined by bio-assay using ileum of guinea pig.
(§5) A piece of the ileum (2-3 cm of length) positioned from 15-25 cm from the opening portion of ileocecum was isolated from a male guinea pig (Hartley strain) (body weight: 400-600 g) which was fasted for 24 hours. The piece of ileum was hanged vertically in a Magnus tube which was filled with 10 ml of Tyrode's solution containing 10^-7 M of atropine sulfate under air stream conditions. The isotonic contraction of the piece of the ileum was measured at 0.5 g of load by using an isotonic transducer "TD-112S" (manufactured by Nihon Koden Co., Ltd.). The measurements were carried out after the reaction to histamine of the piece of ileum was kept constant. Bioassay of histamine was measured by using the value of contraction shown in 30 seconds after the addition of the supernatant. Bioassay of on SRS-A was measured by using the value of contraction shown at 2 minutes after the addition of the supernatant in the presence of 10^-6 M of pyrilamine (manufactured by Sigma Chemical Co.), and compared with the standard curve of crude SRS-A released from the fragments of the lung.

5-lipoxygenase = molecular target: T1, 5-lipoxygenase (Cavia porcellus, UniProt A0A286X958); assay: 5-Lipoxygenase inhibitory activity (conversion of 14C-arachidonic acid to 5-HETE) in guinea pig peritoneal exudate cells; settings: read-out: inhibition ratio (%) of 5-lipoxygenase activity; for inhibition at 0.3 µM: concentration 3 × 10^-7 M; for inhibition at 1 µM: concentration 10^-6 M; for inhibition at 0.1 µM: concentration 10^-7 M; for inhibition at 3 µM: concentration 3 × 10^-6 M; for inhibition at 10 µM: concentration 10^-5 M
T1 construct: endogenous in cells; host or cells: guinea pig (Hartley strain) casein-elicited peritoneal exudate cells, intact cell suspension
T1 sequence (A0A286X958 1-674): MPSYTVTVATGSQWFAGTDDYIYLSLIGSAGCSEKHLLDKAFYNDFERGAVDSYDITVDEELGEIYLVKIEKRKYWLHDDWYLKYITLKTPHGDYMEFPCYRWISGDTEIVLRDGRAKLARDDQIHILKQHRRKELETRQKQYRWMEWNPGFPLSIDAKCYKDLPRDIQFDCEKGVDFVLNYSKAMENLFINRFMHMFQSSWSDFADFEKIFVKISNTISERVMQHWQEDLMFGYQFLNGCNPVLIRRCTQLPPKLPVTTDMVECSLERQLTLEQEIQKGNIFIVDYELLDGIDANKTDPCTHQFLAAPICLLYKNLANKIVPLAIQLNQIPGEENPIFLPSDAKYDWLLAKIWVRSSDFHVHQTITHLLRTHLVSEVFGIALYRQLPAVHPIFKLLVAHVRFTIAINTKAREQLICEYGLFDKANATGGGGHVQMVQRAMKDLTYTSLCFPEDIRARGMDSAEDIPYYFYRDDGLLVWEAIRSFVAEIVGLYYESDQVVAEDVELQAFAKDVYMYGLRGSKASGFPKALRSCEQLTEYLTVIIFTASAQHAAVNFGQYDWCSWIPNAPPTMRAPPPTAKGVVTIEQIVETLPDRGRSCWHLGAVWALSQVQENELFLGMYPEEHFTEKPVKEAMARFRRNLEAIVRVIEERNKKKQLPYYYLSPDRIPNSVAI
Experimental: 5-Lipoxygenase inhibitory activity of the present compounds was determined by a method according to procedures described in "J. Biol. Chem., Vol. 256, pages 4156-4159, (1981, Ibid. Vol. 258, pages 5754-5758 (1983).
(1) Preparation of Test Cells
A guinea pig (Hartley strain) (500-650 g body weight) was intraperitoneally administered with 2%-casein solution in 3/50 the volume of body weight. 14 Hours after the administration, the animal was sacrificed by bleeding and the peritoneal cavity was washed with Dulbecco's phosphate buffered saline (PBS) containing 3 U/ml of heparin and the exudate cells were harvested. The sample of cells was washed twice with Dulbecco's PBS (-), then the cells were suspended in Dulbecco's PBS (-), containing 1 mM of calcium chloride and 5.5 mM of glucose, so as to make a suspension having the concentration of 2.5×10^7 cells/ml.
To 0.2 ml of the above-mentioned cell suspension was added 10^-5 M of Indomethacine, and incubated at 30° C. for 2 minutes. Each of the appropriate concentrations of test compounds was added to the suspension respectively, further incubated for 2 minutes. Next, 10 μm of Ionophore A23187 (manufactured by Calbiochem-Behring, San Diego, Calif., U. S. A) was added to the suspension, further, 10 μm of ^14 C-arachidonic acid (manufactured by Amersham Japan, Ltd., Tokyo, Japan) was added and initiated the reaction. 3 Minutes after the initiation of the reaction, 0.1 ml of 0.2M-citric acid was added so as to terminate the reaction. 1.2 Milliliters of ethyl acetate was added to the reaction mixture and shaked for 5 minutes. The reaction mixture was centrifuged at 3,000 rpm for 5 minutes so as to separate the organic layer from the aqueous layer. 1 Milliliter of the organic layer (the upper layer) was dehydrated by passing through a mini-column packed with anhydrous sodium sulfate. The dehydrated organic layer was dried under nitrogen gas stream. The residue obtained was dissolved in ethyl acetate, and the total amount of the ethyl acetate solution was spotted onto thin layer chromochromatography (TCL) plate (Art. 11845 manufactured by E. Merck A. G.). The TCL was carried out with a mixed solvent of diethyl ether:petroleum:ether:acetic acid (50:50:1 volume/volume), then the radioactive metabolites on the plate were detected by using "Ultrafilm ^3 H" (a trademark for a X-ray film, manufactured by LKB Co.). Each fractions corresponding to the metabolites was scraped in to a scintillation vial, and 5 ml of "Scintilator ACS-II" (manufactured by Amersham Japan, Ltd.), was added then the radio-activity was determined by means of a liquid scintillation counter.

[2] = system: histamine release from lung fragments; assay: Inhibition of histamine release from sensitized guinea pig lung fragments; settings: Cavia porcellus, read-out: Inhibition ratio (%) Histamine; for inhibition at 3 µM: Table 2, dose 3 μM; for inhibition at 30 µM: Table 2, dose 30 μM
Experimental: as §1, §2, §3, §4, §5

[3] = Table 2, dose 3 μM, read-out: Inhibition ratio (%) SRS-A
[4] = Table 2, dose 30 μM, read-out: Inhibition ratio (%) SRS-A
[5] = Table 2B, 3 μM, read-out: Inhibitory activities on SRS-A (%)
[6] = Table 2B, 30 μM, read-out: Inhibitory activities on SRS-A (%)

Row | SMILES | inhibition at 0.3 µM (5-lipoxygenase) [%] | inhibition at 1 µM (5-lipoxygenase) [%] | inhibition at 0.1 µM (5-lipoxygenase) [%] | inhibition at 3 µM (5-lipoxygenase) [%] | inhibition at 10 µM (5-lipoxygenase) [%] | inhibition at 3 µM [1, 3] [%] | inhibition at 30 µM [1, 4] [%] | inhibition at 3 µM [2] [%] | inhibition at 30 µM [2] [%] | inhibition at 3 µM [1, 5] [%] | inhibition at 30 µM [1, 6] [%]
1 | COC1=CC(=O)C(OC)=C(CCCCCCC2=C(OC)C(=O)C=C(OC)C2=O)C1=O [Test Compound No. 10, 2,2'-Hexamethylenebis(3,6-dimethoxy-1,4-benzoquinone)] | 58 | 81 | 17 |  |  | 73.4 | > 95.2 | 20.6 | 22.4 |  | 
2 | COC1=CC(=O)C(OC)=C(CCCCCCCC2=C(OC)C(=O)C=C(OC)C2=O)C1=O [Test Compound No. 11, 2,2'-Heptamethylenebis(3,6-dimethoxy-1,4-benzoquinone)] | 64 | 88 | 44 |  |  | 32.5 | 85.7 | -8.4 | -3.6 | 32.5 | 85.7
3 | COC1=CC(=O)C(OC)=C(CCCCCCCCC2=C(OC)C(=O)C=C(OC)C2=O)C1=O [Test Compound No. 12, 2,2'-Octamethylenebis(3,6-dimethoxy-1,4-benzoquinone)] | 72 | 87 | 36 |  |  | 26.9 | 71.7 | 2.4 | -2.2 |  | 
4 | COC1=CC(=O)C(OC)=C(CCCCCCCCCCC2=C(OC)C(=O)C=C(OC)C2=O)C1=O [Test Compound No. 14, 2,2'-Decamethylenebis(3,6-dimethoxy-1,4-benzoquinone)] | 78 | 89 | 34 |  |  | 4.5 | 29.2 | -12.6 | -23.5 |  | 
5 | COC1=CC(=O)C(OC)=C(CCCCCCCCCCCCC2=C(OC)C(=O)C=C(OC)C2=O)C1=O [Test Compound No. 15, 2,2'-Dodecamethylenebis(3,6-dimethoxy-1,4-benzoquinone)] | 37 | 77 | 5 |  |  | 3.4 | 3.8 | -10.4 | -16 |  | 
6 | COC1=CC(=O)C(OC)=C(CCCCCC2=C(OC)C(=O)C(C)=C(OC)C2=O)C1=O [Test Compound No. 18, 2,5-Dimethoxy-3-methyl-6-[5-(2,5-dimethoxy-1,4-benzoquinon-3-yl)pentyl]-1,4-benzoquinone] | 33 | 53 | 17 |  |  | 62.9 | 91.9 | 14.4 | 8.3 |  | 
7 | CCCCC#CCCCCCCCCCC1=C(OC)C(=O)C=C(OC)C1=O [Test Compound No. 32, 2,5-Dimethoxy-3-(10-pentadecynyl)-1,4-benzoquinone] | 36 | 56 |  | 80 | 87 |  |  |  |  | 12.4 | 26

Now from value to compound, other results behind:

Row | inhibition at 0.3 µM (5-lipoxygenase) [%] | inhibition at 1 µM (5-lipoxygenase) [%] | inhibition at 0.1 µM (5-lipoxygenase) [%] | inhibition at 3 µM (5-lipoxygenase) [%] | inhibition at 10 µM (5-lipoxygenase) [%] | SMILES | inhibition at 3 µM [1, 3] [%] | inhibition at 30 µM [1, 4] [%] | inhibition at 3 µM [2] [%] | inhibition at 30 µM [2] [%] | inhibition at 3 µM [1, 5] [%] | inhibition at 30 µM [1, 6] [%]
8 | 51 | 87 |  | 91 | 89 | CCCC/C=C\CCCCCC1=C(OC)C(=O)C=C(OC)C1=O [Test Compound No. 33, 2,5-Dimethoxy-3-(Z-6-undecenyl)-1,4-benzoquinone] |  |  |  |  | 19.6 | 33.4
9 | 26 | 37 |  | 73 | 89 | CCCC/C=C\CCCCCCCC1=C(OC)C(=O)C=C(OC)C1=O [Test Compound No. 34, 2,5-Dimethoxy-3-(Z-8-tridecenyl)-1,4-benzoquinone] |  |  |  |  | 3.2 | 0.8
10 | 39 | 75 |  | 92 | 91 | CCCCC#CCCCCCC1=C(OC)C(=O)C=C(OC)C1=O [compound 30] |  |  |  |  | 23.8 | 73.4
11 | 43 | 73 |  | 91 | 93 | CCCCC#CCCCCCCCC1=C(OC)C(=O)C=C(OC)C1=O [compound 31] |  |  |  |  | 17 | 37.7
